Data reported in US5292740A, “Sulfonamides” (Hoffmann-La Roche Inc., priority 1991, dated 1994).

What was measured:
endothelin receptors = test: Inhibition of endothelin binding to human placenta membranes; settings: 125I-endothelin 20 pM, 20° C. for 2 hours or 4° C. for 24 hours, read-out: IC50 (concentration required to inhibit 50% of the specific binding of 125I-endothelin)
Experimental: I: Inhibition of endothelin binding to human placenta membranes (see. Life Sci 44:1429 (1989))
Human placenta is homogenized in 5 mM Tris buffer, pH 7.4, which contains 1 mM MgCl2 and 250 mM sucrose. The homogenizate is centrifuged at 4° C. and 3000 g for 15 minutes, the supernatant containing the plasma membrane fraction is centrifuged with 72000 g for 30 minutes and the precipitate is washed with 75 mM Tris buffer, pH 7.4, which contains 25 mM MgCl2. Thereafter, precipitate obtained from, in each case, 10 g of original tissue is suspended in 1 ml of 75 mM Tris buffer, pH 7.4, containing 25 mM MgCl2 and 250 mM sucrose, and freeze-dried at -20° C. in 1 ml aliquots.
For the binding assay, the freeze-dried membrane preparations are thawed and, after centrifugation at 20° C. and 25000 g for 10 minutes, re-suspended in assay buffer (50 mM Tris buffer, pH 7.4, containing 25 mM MnCl2, 1 mM EDTA and 0.5% of bovine serum albumin). […] of this membrane suspension containing […] of protein are incubated with […] of ^125 I-endothelin (specific activity 2200 Ci/mMol) in assay buffer (25000 cpm, final concentration 20 pM) and […] of assay buffer containing varying concentrations of test compound. The incubation is carried out at 20° C. for 2 hours or at 4° C. for 24 hours. The separation of free and membrane-bound radioligands is carried out by filtration over a glass fibre filter.
The inhibitory activity of compounds of formula I determined in this test procedure is given in Table 1 as the IC50, that is, as the concentration […] which is required to inhibit 50% of the specific binding of ^125 I-endothelin.

rats = test: Inhibitory activity on vasoconstriction in vivo in rats (renal ischaemia, renal perfusion by Doppler); parameters: species or system rat; settings: 45 minutes renal ischaemia; compound given 10 minutes before, 5 mg/kg i.a. or 10 mg/kg i.v.; control tests 43±4% reduction vs preischaemic value
Experimental: III. The inhibitory activity of the compounds of formula I on vasoconstriction can be observed in vivo in rats in the test procedure described hereinafter:
Rats were anaesthetized with Na thiobutabarbital (100 mg/kg i.p.). A catheter for measuring the systemic arterial blood pressure was placed through the femoral artery and a catheter was placed in the vena cava via the femoral vein for injection of the test compounds. A Doppler sonde was placed around the left renal artery and attached to a Doppler measuring apparatus. A renal ischaemia was produced by pinching off the left renal artery at its point of exit for 45 minutes. 10 minutes prior to the induction of the ischaemia the test compounds were administered intraarterially (i.a.) in dosages of 5 mg/kg or intravenously (i.v.) in dosages of 10 mg/kg. In control tests, the renal perfusion was reduced by 43±4% compared to the preischaemic value.

[1] = system: isolated rat aorta rings (endothelin-induced contractions); test: Inhibition of endothelin-induced contractions in isolated rat aorta rings; type: cell-based, rat (adult Wistar-Kyoto); settings: in the absence of test compounds; read-out: EC50 of endothelin (concentration required for a half-maximum contraction)
Experimental: II. Inhibition of endothelin-induced contractions in isolated rat aorta rings
Rings with a length of 5 mm were cut out from the thorax aorta of adult Wistar-Kyoto rats. The endothelium was removed by lightly rubbing the internal surface. Each ring was immersed at 37° C. in 10 ml of Krebs-Henseleit solution in an isolated bath while gassing with 95% O2 and 5% CO2. The isometric stretching of the rings was measured. The rings were stretched to a pretension of 3 g. After incubation for 10 minutes with the test compound or vehicle, cumulative dosages of endothelin-1 were added. The activity of the test compound was determined by calculating the dosage ratios, that is, the shift to the right (shift to higher values) of the EC50 of endothelin induced by […] of test compound, with EC50 denoting the endothelin concentration required for a half-maximum contraction. […] The EC50 of endothelin in the absence of test compounds is 0.3 nM.

Compound	IC50 (endothelin receptors) [nM]	% Decrease in renal perfusion (rats) [%]	EC50 [1] [nM]
CC(C)(C)c1ccc(S(=O)(=O)Nc2ncnc(OCCO)c2Oc2ccc3c(c2)OCO3)cc1 [Example 27, N-[5-(1,3-benzodioxol-5-yloxy)-6-(2-hydroxyethoxy)-4-pyrimidinyl]-p-tert-butylbenzenesulfonamide]	99		
COc1cccc(Oc2c(NS(=O)(=O)c3ccc(C(C)(C)C)cc3)ncnc2OCCO)c1 [Example 6, p-t-butyl-N-[6-(2-hydroxyethoxy)-5-(m-methoxyphenoxy)-4-pyrimidinyl]benzenesulphonamide]	200	11.7 ± 4.7	
COc1ccccc1Oc1c(NS(=O)(=O)c2ccc(C(C)C)cc2)nc(C(F)(F)F)nc1OCCO [Example 25]	50		
COc1ccccc1Oc1c(NS(=O)(=O)c2ccc(C(C)C)cc2)nc(-c2ccccc2)nc1OCCO [Example 12, N-[6-(2-hydroxyethoxy)-5-(o-methoxyphenoxy)-2-phenyl-4-pyrimidinyl]-p-isopropylbenzenesulfonamide]	125		
COc1ccccc1Oc1c(NS(=O)(=O)c2ccc(C(C)(C)C)cc2)ncnc1OCCO [Example 1, p-t-butyl-N-[6-(2-hydroxyethoxy)-5-(o-methoxyphenoxy)-4-pyrimidinyl]benzenesulfonamide]	115	13.4 ± 5.2	
COc1ccccc1Oc1c(NS(=O)(=O)c2ccc(C(C)C)cc2)nc(C)nc1OCCO [Example 24, N-[6-(2-hydroxyethoxy)-5-(o-methoxyphenoxy)-2-methyl-4-pyrimidinyl]-p-isopropylbenzenesulfonamide]	73		
COc1ccccc1Oc1c(NS(=O)(=O)c2ccc(C(C)C)cc2)ncnc1OCCO [Example 2, N-[6-(hydroxyethoxy)-5-(o-methoxyphenoxy)-4-pyrimidinyl]-p-isopropylbenzenesulfonamide]	100		
endothelin: endothelin-1, agonist added in cumulative dosages to contract rat aorta rings			0.3
